Laboratory results reported in patent publication US8134017B1, “Compound and use thereof” (Riken, priority 2010, dated 2012).
Where “and” joins values, the source holds several entries; their conditions need not be identical. Equal entries are not always repeated.

Experiments:
Assay type in all cases: physicochemical
[1] = Emission spectra, aggregation-induced emission enhancement (AIEE)
Protocol: (§1) UV-vis spectra were collected on a SHIMADZU UV-1700 spectrophotometer at RT (room temperature) using a 1 cm or a 0.1 cm quartz cuvette. Emission spectra were collected on a HITACHI F-4500 fluorescence spectrophotometer. To obtain an accurate spectrum, spectrum correction was carried out with rhodamine B concentrated solution and a secondary-standard light source. In surface photometry, a cut filter was utilized to eliminate multiple lights, such as secondary light, due to the effects of light scattering. Fluorescence spectra of all samples were measured with excitation with 365 nm. Average particle size was measured by dynamic light scattering (ELSZ-2, Otsuka Electronics).
In contrast, the emission behavior of rhodamines in aqueous solution was reported to decrease at 10^−4 M and above because of the formation of the H-dimer. The behavior of ABPX01^+ was directly opposite to the concentration quenching of common hydrophobic dyes.
The AIEE characteristics of 500 μM of ABPX01^+ to ABPX04^+ were investigated in various solvents. […] The emission spectrum of 500 μM of ABPX01^+ in THF was nonemissive.
The problem was solved by using the surface photometric method (FIG. 12). Explained below are the respective surface photometric equipment configurations. […] The problem was solved by using the surface photometric method. A sample holder was set at an angle of 30° with respect to the excitation light. However, attention should be paid to the linearity of the emission intensity against the concentration for the accurate evaluation of high-concentration sample solutions, such as AIEE molecules. In addition, the relative quantum yields of ABPX in solution could not be determined because of the lack of a standard compound. The use of the surface photometric method allows development of an apparatus for the measurement of the absolute fluorescence quantum yields of high-concentration solutions.
The emission spectra are shown in (a) and (b) of FIG. 13. The emission could be observed when 30% volume fraction of water was added. The emission was enhanced when 50% to 90% volume fraction of water was added. Absorption measurements were similarly carried out in water/THF mixtures (containing 1% TFA). As the water fraction increased, the sharp aggregate spectra appearing at approximately 548 and 600 nm grew, as shown in (c) of FIG. 13. From 30% volume fraction of water addition, level-off tails were seen, which were attributed to Mie scattering caused by nanosized particles.
In order to check whether or not restriction of […] rotation (RIR) is involved in AIEE of ABPX01^+, viscochromism and thermochromism of the ABPX01^+ emission were examined. RIR was affected by the viscosity and temperature of the solvent. […] ABPX01^+ inhibited intramolecular rotation and induced AIEE at high viscosity and low temperature.

[2] = Particle size of aggregates by dynamic laser scattering (DLS); settings: 500 μM, 90% water/THF (1% TFA), 25° C.
Protocol: as §1
With the use of dynamic laser scattering (DLS), the particle size of ABPX01^+ was examined in 90% water/THF mixtures (containing 1% TFA) at 25° C. […] As illustrated in (b) of FIG. 14, the particle size of ABPX01^+ aggregates was 500 nm immediately after the preparation of ABPX01^+. The ABPX01^+ aggregates then grew to a size of more than 1200 nm after 30 min. The particle size of ABPX01^+ in methanol and chloroform (respectively, containing 1% TFA) could not be calculated because the fluctuation of the scattered photons was not sufficiently observed owing to the subnanometer size.

[3] = Solubility in organic solvents and water
[4] = UV-vis absorption spectra; settings: 5 M, strong acid TFA/THF mixtures, cationic form
Protocol: as §1
What molecular species of ABPX are appropriate for the evaluation of AIEE in solution was examined. In order to examine to find the appropriate ABPX01 species, the absorbance spectra of […] of ABPX01 were measured in acid or alkaline solution. In THF solution and 1% TEA/THF mixture, the spectra had no peaks that were attributable to the neutral lactonoid species ABPX01^0. In the strong acid solutions of the TFA/THF mixtures, the absorbance spectra having two peaks at 490 nm and 540 nm should be attributable to the cationic form of ABPX01^+. ABPX01^+ is a quinonoid form delocalized over the luminophore and is therefore appropriate for the emission analysis.
The emission spectra are shown in (a) and (b) of FIG. 13. […]

Substance: 3′,3″-Bis (oxospriroisobenzofuran)-3,7-bis(diethylamino)benzopyranoxanthene [ABPX01]
- AIEE ([1]; 500 μM in 1% TFA/chloroform, methanol, ethanol or acetone): exhibited AIEE
- emission in THF ([1]; 500 μM in THF): nonemissive
- volume fraction of water at which emission could be observed ([1]; 500 μM, water/THF mixtures): 30%
- emission intensity with increasing concentration ([1]; 5, 50, 500 μM in 1% TFA/methanol, excitation 365 nm): increased
- emission with increasing solvent viscosity or decreasing temperature ([1]; glycerol/methanol viscosity increased or methanol temperature decreased): increased
- particle size of aggregates ([2]; after 30 min): more than 1200 nm
- particle size of aggregates ([2]; immediately after preparation): 500 nm
- solubility in THF ([3]; THF): easily dissolved
- solubility in organic solvents ([3]; chloroform, methanol, acetone, THF, ethanol): easy to dissolve
- solubility in water [3]: not easy to dissolve
- solubility in water ([3]; listed as ABPX01^+): not in water
- absorbance peaks [4]: 490 nm and 540 nm
